Experiments:
[1] = DPPH test method (antioxidant property, % reducing activity); assay type: biochemical; conditions: 20 minutes, 517 nm
Description: A DPPH concentrate (2.5×) of 25 mg of 1,1-Diphenyl-2-Picyrl-Hydrazyl ACS# 1898-66-4 (Sigma #D-9132, lot 99H3601) dissolved in 250 mL ethanol (USP), is prepared fresh on the measurement date. A DPPH working solution is then prepared by diluting 100 mL of this concentrate to a final volume of 250 mL ([…]). A blank 13×100 mm borosilicate glass screw top tube of ethanol (USP) is used to zero the spectrometer (Milton Roy, Spectronic 20+) at 517 nm and a control tube of DPPH working solution is measured under identical conditions, and taken as 0% activity. Aliquots of the 0.25% & 0.5% (RT & 45° C.) test solution are added to tubes followed by the rapid addition of 4 mL DPPH working solution then rapidly capped and mixed. After 20 minutes, the absorbance of each sample is read at 517 nm.
The percent reducing activity (% RA) is calculated using the following equation:
% Reduction Activity=100 A(0)-A(20)/A(0)
Where A(0) is the absorbance value of the DPPH working solution at 517 nm zeroed against an ethanol blank and A(20) is the absorbance at 517 nm, 20 minutes after combining the antioxidant with the DPPH working solution.
The concentration of antioxidant (mg/ml) in the final assay mixture is calculated based on the dilution of respective aliquots of each compound in the final assay volume and % RA tabulated and plotted as percent activity at each concentration in the dilution series.

[2] = Photostability, 2 hours illumination in Xe arc solar simulator, UV-visible absorption spectrum; assay type: physicochemical; conditions: for photostability compared to Octocrylene: 2 hours of illumination in the solar simulator
Source text: The solar simulator used for illumination of the samples in the experiments was constructed incorporating a 1 kw Xe arc lamp, optical bench and sample illumination chamber. The lamp output was filtered through a water filter with a course window to remove most of the infrared radiation and optical filters to remove wavelengths below 290 nm. The output of the illumination system was focused onto the face of a 1 cm quartz Cuvette that was thermally equilibrated with a constant temperature water bath at 25 ° C. A magnetic stir was mounted under the Cuvette so that the samples could be stirred while being illuminated. An electric shutter was controlled by a dark room timer to provide precise control of illumination times. The solar simulator was constructed to provide illumination that closely matches terrestrial sunlight. The solar simulator delivered roughly 250 J/cm^2 over a 2-hour period of illumination in a 290-490 nm range. This irradiance was determined using two nitrobenzaldehyde chemical actinometry. The irradiance is much higher than other solar simulator systems which typically illuminate a large area in order to illuminate many samples simultaneously rather than being focused down to a very small area. Each exploratory sunscreen compound was dissolved in 70% ethanol/30% isopropyl myristate and/or 70% ethanol/30% water and the UV visible absorption spectrum measured with a Shimadza UV 2101-double beam spectrophotometer using the solvent as reference. A similar solution of Octocrylene was prepared and the UV-visible absorption spectrum measured. Each solution was then illuminated for two hours in the solar simulator. After illumination, the absorption spectrum was again measured each solution.

physchem = assay type: physicochemical
Description: Individual solutions of selected sunscreen compounds (2/1, 2/4, 2/5, 2/7 and 2/8) with Avobenzone were as follows. Each sunscreen compound was dissolved in 70% ethanol/30% H2O solution containing roughly an equal molar amount of Avobenzone. A similar solution containing Di-2-ethylhexyl-2,6-napthalene dicarboxylic acid (DENDA) and Avobenzone was also prepared. Each solution was then illuminated in the solar simulator as configured above for the photostability tests and aliquots of each solution were removed at 30-minute time intervals. These aliquots were injected into an HPLC and the loss of Avobenzone was followed with illumination time. The high performance liquid chromatograph (HPLC) used for all experiments reported therein incorporated a Spectra-Physics model P-200 pump with an Applied Biosystems model 785A UV-Visible detector with a Rheodyne manual injector incorporating a […] sample loop and a 150×4.6 mm reversed-phase C18 column (Alltech). All analyses were carried out under isocratic elution conditions using CH3OH/H2O mixtures for the mobile phase at a flow rate of […] per minute. It was necessary to employ HPLC separation of Avobenzone from each of the sunscreen compounds to quantify Avobenzone due to the absorption spectra overlap with some of these compounds.

[3] = Absorbance and molar absorptivity of sunscreen compounds; assay type: physicochemical; conditions: for molar absorption compared to Avobenzone: 70% ethanol and 30% isopropyl myristate; for ελMax / λMax: 70% ethanol/30% H2O solution
Description: Each exploratory sunscreen compound was dissolved in 70% ethanol/30% isopropyl myristate and/or 70% ethanol/30% water and the UV visible absorption spectrum measured with a Shimadza UV 2101-double beam spectrophotometer using the solvent as reference. A similar solution of Octocrylene was prepared and the UV-visible absorption spectrum measured. Each solution was then illuminated for two hours in the solar simulator. After illumination, the absorption spectrum was again measured each solution. […]

[4] = 0.028 mg/ml in final assay mixture
[5] = 0.056 mg/ml in final assay mixture
[6] = 0.139 mg/ml in final assay mixture
[7] = 0.278 mg/ml in final assay mixture
[8] = 2.500 mg/ml in final assay mixture
[9] = after 2 hours of illumination in the solar simulator

| SMILES | % Reducing Activity [1, 4] | % Reducing Activity [1, 5] | % Reducing Activity [1, 6] | % Reducing Activity [1, 7] | % Reducing Activity [1, 8] | photostability (retention of absorptivity), in words [2, 9] | stability compared to Avobenzone [2] | photostability compared to Octocrylene [2] | stabilization of Avobenzone, compared with DENDA (physchem) | molar absorption compared to Avobenzone [3] | ελMax [3] | λMax [3] | loss of absorbance [2, 9] | absorption after illumination relative to the initial value ([2]; 2 hour period of illumination, not precise) | half-life (physchem) |
| --- | --- | --- | --- | --- | --- | --- | --- | --- | --- | --- | --- | --- | --- | --- | --- |
| CCOC(=O)C(C#N)=Cc1cc(OC)c(O)c(OC)c1 [2/3, ethyl-alpha-cyano-3,5-dimethoxy-4-hydroxy cinnamate] | 5.2% | 8.4% | 11.3% | 15.5% | 25.40% |  |  |  |  |  |  |  |  |  |  |
| CCCCC(CC)COC(=O)C(C#N)=C(c1ccccc1)c1ccccc1 (stereo not shown) [Octocrylene, reference compound] |  |  |  |  |  | no loss in absorptivity |  |  |  |  |  |  |  |  |  |
| CCOC(=O)C(C#N)=Cc1cc(OC)c(OC)c(OC)c1 [2/2, ethyl-alpha-cyano-3,4,5-trimethoxy cinnamate, reference compound] |  |  |  |  | 3% |  |  |  |  |  |  |  |  |  |  |
| CCOC(=O)C(=Cc1cc(OC)c(O)c(OC)c1)C(=O)OCC [2/4, diethyl-3,5-dimethoxy-4-hydroxy benzylidene malonate] | 5.2% | 12.8% | 29.51% | 33.4% | 71.70% | retain most of their absorptivity | appear to be more stable than Avobenzone | comparable photo stabilities to Octocrylene | appear to stabilize Avobenzone as effectively as DENDA | lower molar absorption than Avobenzone | 12000 M⁻¹ cm⁻¹ | 338 nm |  |  |  |
| CCOC(=O)C(C)=Cc1cc(OC)c(O)c(OC)c1 [2/7, ethyl-alpha-methyl-3,5-dimethoxy-4-hydroxy cinnamate] | 46.1% | 61.2% | 77.3% | 85.0% |  |  |  |  |  |  |  | 314 nm | 72% |  |  |
| COc1cc(C=C(C(=O)OCCC(C)C)C(=O)OCCC(C)C)cc(OC)c1O [2/10, di-iso-amyl-3,5-dimethoxy-4-hydroxy benzylidene malonate] | 10.2% | 14.6% | 22.3% | 30.1% |  |  |  |  |  |  |  |  |  |  |  |
| CCCCC(CC)COC(=O)C(=Cc1cc(OC)c(O)c(OC)c1)C(=O)OCC(CC)CCCC (stereo not shown) [2/8, di(2-ethyl-hexyl)-3,5-dimethoxy-4-hydroxy benzylidene malonate] | 8.5% | 13.0% | 23.2% | 33.7% |  |  |  |  | appear to stabilize Avobenzone as effectively as DENDA |  | 16000 M⁻¹ cm⁻¹ | 340 nm |  | approximately 82% |  |
| CCOC(=O)C(=Cc1cc(OC)c(O)c(OC)c1)C(C)=O [2/5, ethyl-alpha-acetyl-3,5-dimethoxy-4-hydroxy cinnamate] | 20.7% | 31.0% | 47.3% | 59.9% |  | retain most of their absorptivity | appear to be more stable than Avobenzone | comparable photo stabilities to Octocrylene | somewhat less effective than DENDA | lower molar absorption than Avobenzone | 19000 M⁻¹ cm⁻¹ | 348 nm |  |  |  |
| COc1ccc(C(=O)CC(=O)c2ccc(C(C)(C)C)cc2)cc1 [Avobenzone, reference compound] |  |  |  |  |  |  |  |  |  |  | 25000 M⁻¹ cm⁻¹ | 360 nm |  |  | ~3 h |
| CCOC(=O)C(=Cc1cc(OC)c(OC)c(OC)c1)C(=O)OCC [2/1, diethyl-3,4,5-trimethoxy benzylidene malonate, reference compound] |  |  |  |  | 0.0% | retain most of their absorptivity |  | comparable photo stabilities to Octocrylene | appear to stabilize Avobenzone as effectively as DENDA |  | 20000 M⁻¹ cm⁻¹ | 313 nm |  |  |  |
| CCCCC(CC)COC(=O)c1ccc2cc(C(=O)OCC(CC)CCCC)ccc2c1 (stereo not shown) [DENDA, Di-2-ethylhexyl-2,6-napthalene dicarboxylic acid, reference compound] |  |  |  |  |  |  |  |  | Initially the loss of Avobenzone was quite rapid but then seemed to become stable |  |  |  |  |  |  |
